We go through 6 molecules from patent US20100215747A1, “NANOPARTICLES COMPRISING IONIZABLE, POORLY WATER SOLUBLE CELLULOSIC POLYMERS” (priority 2007, published 2010).

Data set [1] can be described thus: Solubility of drug in water. Format: physicochemical.
Another data set in a line: Log P value of drug. Format: physicochemical. The note with it: octanol/water. The text has this: The first property of hydrophobic drugs is that they are extremely hydrophobic. Log P, defined as the base 10 logarithm of the ratio of the drug solubility in octanol to the drug solubility in water, is a widely accepted measure of hydrophobicity. By “extremely hydrophobic” is meant that the Log P value of the drug is at least 4.0, preferably at least 4.5, and most preferably at least 5.0. Log P may be measured experimentally or calculated using methods known in the art. When using a calculated value for Log P, the highest value calculated using any generally accepted method for calculating Log P is used. Calculated Log P values are often referred to by the calculation method, such as C log P, A log P, and M log P. The Log P may also be estimated using fragmentation methods, such as Crippen's fragmentation method (27 J. Chem. Inf. Comput. Sci. 21 (1987)); Viswanadhan's fragmentation method (29 J. Chem. Inf. Comput. Sci. 163 (1989)); or Broto's fragmentation method (19 Eur. J. Med. Chem.-Chim. Theor. 71 (1984). Preferably the Log P value is calculated by using the average value estimated using Crippen's, Viswanadhan's, and Broto's fragmentation methods.

How the values of data set [2] were obtained: By “solids concentration” is meant the amount of solid polymer added to the PBS solution to measure the solubility of the polymer in the PBS solution. An appropriate PBS solution is an aqueous solution comprising 20 mM sodium phosphate (Na2HPO4), 47 mM potassium phosphate (KH2PO4), 87 mM NaCl, and 0.2 mM KCl, adjusted to pH 6.5 with NaOH. A test to determine whether the polymer is poorly water soluble may be performed as follows. The polymer is initially present in bulk form with average particle sizes of greater than 1 micron. The solid polymer alone is added to a PBS solution to achieve a solids concentration of 0.2 mg/mL polymer in the PBS solution. The PBS solution is stirred for approximately 1 hour at room temperature. Next, a nylon 0.45 μm filter is weighed, and the polymer solution is filtered. The filter is dried overnight at 40° C., and weighed the following morning. The amount of polymer dissolved is calculated from the amount of polymer added to the PBS solution minus the amount of polymer remaining on the filter (mg).
The degree of water solubility of Polymers 2, 3, and 5 were evaluated as follows. […] The amount of dissolved polymer was calculated from amount of polymer added to the PBS solution minus the amount of polymer remaining on the filter (mg). […]

In brackets after ≈: the same amount, converted by molar mass. Where two headings read alike, the source gives them in different places. Bounds are passed on as bounds.

As to `Cc1ccc(-c2cc(C(F)(F)F)nn2-c2ccc(S(N)(=O)=O)cc2)cc1` [Drug 1, 4-[5-(4-methylphenyl)-3-(trifluoromethyl)-1H-pyrazol-1-yl]benzenesulfonamide], in data set [1] (read-out: solubility in water), the solubility (as a rule, how much of the substance goes into solution per volume) is approximately 3.5 µg/mL (≈ 9.18 µM). In the case of `CC[C@@H]1C[C@H](N(Cc2cc(C(F)(F)F)cc(C(F)(F)F)c2)C(C)=O)c2cc(C(F)(F)F)ccc2N1C(=O)OC(C)C` [Drug 2, [2R,4S]-4-[acetyl-(3,5-bis-trifluoromethyl-benzyl)-amino]-2-ethyl-6-trifluoromethyl-3,4-dihydro-2H-quinoline-1-carboxylic acid isopropyl ester], in data set [1] (read-out: solubility in water), the solubility was less than 0.01 µg/mL. Regarding `O=C1NC(=O)C(c2ccccc2)(c2ccccc2)N1` [Drug 3, diphenylhydantoin], the solubility in data set [1] (pH 7.5, aqueous buffer, read-out: solubility in water at pH 7.5) is approximately 22 µg/mL (≈ 87.2 µM). Besides, in the data set “Log P value of drug”, the logP (usually a log measure of how a compound divides between an organic and an aqueous phase) was found to be 2.47.

As to `O=C1Cc2cc(CCN3CCN(c4nsc5ccccc45)CC3)c(Cl)cc2N1` [Drug 4], the solubility in data set [1] (read-out: solubility in water) is approximately 0.15 µg/mL (≈ 0.363 µM). The molecule further gave a logP in “Log P value of drug” of approximately 3.6. With carboxy methyl ethyl cellulose [CP6], the “Solubility (mg/mL) at pH 6.5” value in data set [2] was found to be 0.2 mg/mL. The same measure, in the same setting: to cellulose acetate trimellitate [CP5] belongs 0.2 mg/mL.
